Test system: patients admitted to hospital with AMI

Structure (SMILES)	actual number of deaths (386 exposed patients of the 6,699 cohort (FIG. 4A column 415))	expected number of deaths (Monte Carlo simulation, 2,000 burn-in and 50,000 iterations (FIG. 4A column 420))	in-house mortality percentage (count of deaths from the number receiving exposure) (Table 500 column 520, cohort of 6,699 AMI inpatients, 5.7% of the cohort died) [%]
O=C(O)c1cn(C2CC2)c2cc(N3CCNCC3)c(F)cc2c1=O [Ciprofloxacin]	129	28.3	
CC(C)c1c(C(=O)Nc2ccccc2)c(-c2ccccc2)c(-c2ccc(F)cc2)n1CC[C@@H](O)C[C@@H](O)CC(=O)O [atorvastatin]			3.4

— patent US11380440B1, “Marker screening and signal detection” (Cerner Innovation, Inc., priority 2011, dated 2022)
